Results: paper PMC12682127, “Structural basis for inhibition of Mycobacterium tuberculosis α-methylacyl-CoA racemase by 2-arylthiopropanoyl-CoA inhibitor analogs” (The Journal of Biological Chemistry, 2025)
Like-named read-outs stand apart in the source and are kept apart here.

Legend:
[1] = target: T1, Mycobacterium tuberculosis α-methylacyl-CoA racemase (MCR) (Mycobacterium tuberculosis, UniProt O06543); assay: MCR inhibition, colorimetric assay, dose-response curves; format: biochemical; set-up: made in house
[2] = target: T1, Mycobacterium tuberculosis α-methylacyl-CoA racemase (MCR); assay: Jump-dilution experiment for reversibility of MCR inhibition; format: biochemical; set-up: made in house; details: inhibitor at 24 × or 0.24 × IC50, 12 min
Description: Inhibition assays were conducted as previously described ([17]) in 50 mM NaH2PO4-NaOH, 100 mM NaCl, 1 mM EDTA (pH 7.4), and 3% (v/v) dimethylsulfoxide. Product formation was monitored at 354 nm. […] Enzyme and inhibitor were preincubated for 10 min before adding substrate to initiate the assay. Rates were determined using ICEKAT ([50], [51]), and dose-response curves ([36], [37]) were fitted using SigmaPlot 15.0 with a 4-parameter logistic model. Data are reported as pIC50 ± SEM (n = 3).

[3] = target: T1, Mycobacterium tuberculosis α-methylacyl-CoA racemase (MCR); assay: Inhibition mode determination / Ki (kinetic analysis, colorimetric assay); format: biochemical; set-up: made in house
Description: Enzyme and inhibitor solutions were pre-incubated for 10 min before adding these mixtures to the substrate to initiate the assay. Rates were determined using ICEKAT ([50], [51]) and analyzed with SigmaPlot 15.0 using Simple EK and enzyme kinetics macros ([53]). The best-fitting inhibition model was selected based on graphical analysis and statistical ranking of models. The Ki value was determined as the mean ± SEM from three independent repeats.

[4] = target: T1, Mycobacterium tuberculosis α-methylacyl-CoA racemase (MCR); details: mean ± SEM, n = 3; cited from earlier work
[5] = target: T1, Mycobacterium tuberculosis α-methylacyl-CoA racemase (MCR); set-up: made in house; method as in PMID 40447188; details: cited from earlier work
[6] = Log10 IC50, repeat 1, 4-parameter logistic fit coefficient
[7] = Log10 IC50, repeat 2, 4-parameter logistic fit coefficient
[8] = Log10 IC50, repeat 3, 4-parameter logistic fit coefficient
[9] = pIC50, mean ± SEM, n = 3, MCR 3.12 nM, substrate 96 μM, 10 min preincubation, pH 7.4
[10] = repeat 1, 4-parameter logistic fit coefficient
[11] = repeat 2, 4-parameter logistic fit coefficient
[12] = repeat 3, 4-parameter logistic fit coefficient

T1 sequence (O06543 whole entry): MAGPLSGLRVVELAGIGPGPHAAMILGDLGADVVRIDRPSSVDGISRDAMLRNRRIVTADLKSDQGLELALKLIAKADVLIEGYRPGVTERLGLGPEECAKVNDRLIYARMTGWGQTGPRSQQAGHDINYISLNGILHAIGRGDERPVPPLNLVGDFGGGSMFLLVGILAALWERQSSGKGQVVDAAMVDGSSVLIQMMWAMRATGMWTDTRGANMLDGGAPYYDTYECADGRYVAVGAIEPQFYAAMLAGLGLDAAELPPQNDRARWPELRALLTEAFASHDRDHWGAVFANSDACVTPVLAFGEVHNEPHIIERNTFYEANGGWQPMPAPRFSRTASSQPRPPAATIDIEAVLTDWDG

Compound	IC50 [1, 6] [nM]	IC50 [1, 7] [nM]	IC50 [1, 8] [nM]	IC50 [1, 9] [nM]	Hillslope [1, 10]	Hillslope [1, 11]	Hillslope [1, 12]	Reversibility of inhibition [2]	Ki ([3]; mean ± SEM, n = 3, competitive model) [nM]	Ki ([3]; repeat 1) [nM]	Ki ([3]; repeat 2) [nM]	Ki ([3]; repeat 3) [nM]	Mode of inhibition ([3]; Lineweaver-Burk plot / kinetic analysis)	Potency relative to ibuprofenoyl-CoA, from pIC50 [1]	Ki [4] [nM]	pIC50 [5]
COc1cccc(CCOc2cccc(SC(C)C(=O)SCCNC(=O)CCNC(=O)C(O)C(C)(C)COP(=O)(O)OP(=O)(O)OCC3OC(n4cnc5c(N)ncnc54)C(O)C3OP(=O)(O)O)c2)c1 (racemic) [Compound 5, (±)-2-(3-(2-(3-Methoxyphenyl)ethoxy)phenylthio)propanoyl-CoA]	1470	1260	1490	1410	-1.0666	-1.0398	-0.8398	–	–	–	–	–	–	–	–	–
CC(C)COc1ccc(SC(C)C(=O)SCCNC(=O)CCNC(=O)C(O)C(C)(C)COP(=O)(O)OP(=O)(O)OCC2OC(n3cnc4c(N)ncnc43)C(O)C2OP(=O)(O)O)cc1 (racemic) [Compound 13, (±)-2-(4-(2-Methylpropoxy)phenylthio)propanoyl-CoA]	2070	1930	1640	1860	-0.7177	-0.8209	-0.7335	–	–	–	–	–	–	–	–	–
CC(C)COc1cccc(SC(C)C(=O)SCCNC(=O)CCNC(=O)C(O)C(C)(C)COP(=O)(O)OP(=O)(O)OCC2OC(n3cnc4c(N)ncnc43)C(O)C2OP(=O)(O)O)c1 (racemic) [Compound 7, (±)-2-(3-(2-Methylpropoxy)phenylthio)propanoyl-CoA]	4030	3320	4760	3980	-0.7207	-0.6683	-0.7565	–	–	–	–	–	–	–	–	–
CC(Sc1ccc(OCCc2ccccc2)cc1)C(=O)SCCNC(=O)CCNC(=O)C(O)C(C)(C)COP(=O)(O)OP(=O)(O)OCC1OC(n2cnc3c(N)ncnc32)C(O)C1OP(=O)(O)O (racemic) [Compound 10, (±)-2-(4-(2-Phenylethoxy)phenylthio)propanoyl-CoA]	2140	3020	2490	2510	-0.9669	-1.3506	-1.1651	–	–	–	–	–	–	–	–	–
CC(Sc1ccc(OCCc2cccc(C(F)(F)F)c2)cc1)C(=O)SCCNC(=O)CCNC(=O)C(O)C(C)(C)COP(=O)(O)OP(=O)(O)OCC1OC(n2cnc3c(N)ncnc32)C(O)C1OP(=O)(O)O (racemic) [Compound 12, (±)-2-(4-(2-(3-Trifluoromethylphenethoxy)phenylthio)propanoyl-CoA]	828	706	1040	851	-1.1570	-1.0035	-1.3522	–	–	–	–	–	–	–	–	–
CC(Sc1cccc(OCCc2cccc(C(F)(F)F)c2)c1)C(=O)SCCNC(=O)CCNC(=O)C(O)C(C)(C)COP(=O)(O)OP(=O)(O)OCC1OC(n2cnc3c(N)ncnc32)C(O)C1OP(=O)(O)O (racemic) [Compound 6, (±)-2-(3-(2-(3-Trifluoromethylphenyl)ethoxy)phenylthio)propanoyl-CoA]	134	109	316	166	-0.6535	-0.6960	-1.0454	reversible inhibition	238 ± 39	190	315	210	competitive inhibition	at least 13.5 times	–	–
CC(C)Cc1ccc(C(C)C(=O)SCCNC(=O)CCNC(=O)C(O)C(C)(C)COP(=O)(O)OP(=O)(O)OCC2OC(n3cnc4c(N)ncnc43)C(O)C2OP(=O)(O)O)cc1 (centres unmarked) [ibuprofenoyl-CoA]	–	–	–	–	–	–	–	–	–	–	–	–	–	–	3040 ± 340	5.65 ± 0.05
CC(Sc1cccc(OCc2ccccc2)c1)C(=O)SCCNC(=O)CCNC(=O)C(O)C(C)(C)COP(=O)(O)OP(=O)(O)OCC1OC(n2cnc3c(N)ncnc32)C(O)C1OP(=O)(O)O (racemic) [Compound 2, (±)-2-(3-Benzyloxyphenylthio)propanoyl-CoA]	1630	619	487	794	-0.7954	-0.7479	-0.8395	–	–	–	–	–	–	–	–	–
CC(Sc1cccc(OCCc2ccccc2)c1)C(=O)SCCNC(=O)CCNC(=O)C(O)C(C)(C)COP(=O)(O)OP(=O)(O)OCC1OC(n2cnc3c(N)ncnc32)C(O)C1OP(=O)(O)O (racemic) [Compound 4, (±)-2-(3-(2-Phenylethoxy)phenylthio)propanoyl-CoA]	791	891	839	832	-0.6564	-0.8291	-0.8501	–	–	–	–	–	–	–	–	–
CC(C(=O)SCCNC(=O)CCNC(=O)C(O)C(C)(C)COP(=O)(O)OP(=O)(O)OCC1OC(n2cnc3c(N)ncnc32)C(O)C1OP(=O)(O)O)c1cccc(Oc2ccccc2)c1 (racemic) [Compound 1, (±)-Fenoprofenoyl-CoA]	–	–	–	–	–	–	–	–	–	–	–	–	–	–	–	5.43 ± 0.07
CCCCCOc1ccc(SC(C)C(=O)SCCNC(=O)CCNC(=O)C(O)C(C)(C)COP(=O)(O)OP(=O)(O)OCC2OC(n3cnc4c(N)ncnc43)C(O)C2OP(=O)(O)O)cc1 (racemic) [Compound 14, (±)-2-((4-(pentyloxy)phenyl)thio)propanoyl-CoA]	913	690	846	813	-0.6352	-0.8783	-0.7880	–	–	–	–	–	–	–	–	–
CC(Sc1ccc(OCc2ccccc2)cc1)C(=O)SCCNC(=O)CCNC(=O)C(O)C(C)(C)COP(=O)(O)OP(=O)(O)OCC1OC(n2cnc3c(N)ncnc32)C(O)C1OP(=O)(O)O (racemic) [Compound 8, (±)-2-(4-Benzyloxyphenylthio)propanoyl-CoA]	2620	2610	2800	2690	-0.8760	-0.9668	-0.9845	–	–	–	–	–	–	–	–	–
COc1cccc(COc2cccc(SC(C)C(=O)SCCNC(=O)CCNC(=O)C(O)C(C)(C)COP(=O)(O)OP(=O)(O)OCC3OC(n4cnc5c(N)ncnc54)C(O)C3OP(=O)(O)O)c2)c1 (racemic) [Compound 3, (±)-2-(3-(3-Methoxybenzyloxy)phenylthio)propanoyl-CoA]	401	425	228	339	-0.6534	-0.5594	-0.7275	–	–	–	–	–	–	–	–	–
COc1cccc(CCOc2ccc(SC(C)C(=O)SCCNC(=O)CCNC(=O)C(O)C(C)(C)COP(=O)(O)OP(=O)(O)OCC3OC(n4cnc5c(N)ncnc54)C(O)C3OP(=O)(O)O)cc2)c1 (racemic) [Compound 11, (±)-2-(4-(2-(3-Methoxyphenyl)ethoxy)phenylthio)propanoyl-CoA]	669	1310	598	813	-0.8553	-1.1060	-0.6966	–	–	–	–	–	–	–	–	–
COc1cccc(COc2ccc(SC(C)C(=O)SCCNC(=O)CCNC(=O)C(O)C(C)(C)COP(=O)(O)OP(=O)(O)OCC3OC(n4cnc5c(N)ncnc54)C(O)C3OP(=O)(O)O)cc2)c1 (racemic) [Compound 9, (±)-2-(4-(3-Methoxybenzyloxy)phenylthio)propanoyl-CoA]	2670	2250	2840	2570	-1.2477	-0.8652	-1.1180	–	–	–	–	–	–	–	–	–
